Values joined by “and” are separate entries in the source; they are usually repeats but may differ in a detail not shown here. Identical values can stand only once.
These compounds were tested against T1, Alpha-1B adrenergic receptor (Rattus norvegicus, UniProt P15823) (assay: Binding Assay).
T1 sequence (P15823 whole entry): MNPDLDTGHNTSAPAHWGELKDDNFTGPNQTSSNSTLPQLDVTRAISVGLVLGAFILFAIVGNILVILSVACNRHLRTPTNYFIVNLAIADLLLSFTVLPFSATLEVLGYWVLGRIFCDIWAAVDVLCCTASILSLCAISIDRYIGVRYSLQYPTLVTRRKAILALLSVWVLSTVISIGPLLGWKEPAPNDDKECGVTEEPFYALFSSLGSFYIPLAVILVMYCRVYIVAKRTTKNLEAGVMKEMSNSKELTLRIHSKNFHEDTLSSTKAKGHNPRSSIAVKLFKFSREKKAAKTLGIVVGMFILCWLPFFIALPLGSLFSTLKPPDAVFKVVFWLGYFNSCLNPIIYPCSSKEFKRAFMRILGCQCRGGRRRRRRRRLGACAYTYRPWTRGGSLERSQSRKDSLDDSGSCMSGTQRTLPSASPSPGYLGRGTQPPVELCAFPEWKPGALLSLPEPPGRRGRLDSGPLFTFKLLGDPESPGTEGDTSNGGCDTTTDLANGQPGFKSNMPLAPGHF
Description: All rat alpha-1 adrenoceptor binding was performed by Hugo M. vargas, Karen M. Brooks and Lynn Laws-Ricker.

Row | SMILES | Ki
1 | OCC(CN1Cc2ccc(F)cc2C1)N1CCC(c2noc3cc(F)ccc23)CC1 (stereo not given) [Isoindoline, 11] | 92.5 nM
2 | OCC(CN1Cc2cccc(F)c2C1)N1CCC(c2noc3cc(F)ccc23)CC1 (stereo not given) [Isoindoline, 12] | 232 nM
3 | Cc1cccc2c1CN(CC(CO)N1CCC(c3noc4cc(F)ccc34)CC1)C2 (stereo not given) [Isoindoline, 16] | 12.4 nM
4 | COc1ccc2c(c1)CN(CC(CO)N1CCC(c3noc4cc(F)ccc34)CC1)C2 (stereo not given) [Isoindoline, 19] | 20 nM
5 | COc1cccc2c1CN(CC(CO)N1CCC(c3noc4cc(F)ccc34)CC1)C2 (stereo not given) [Isoindoline, 20] | 17.5 nM
6 | O=C1c2ccccc2CN1CC(CO)N1CCC(c2noc3cc(F)ccc23)CC1 (stereo not given) [Isoindoline, 23] | 4.1 nM
7 | OCC(CN1CCc2ccccc2C1)N1CCC(c2noc3cc(F)ccc23)CC1 (stereo not given) [Isoindoline, 26] | 19 nM

Further lines, results first:

Row | Ki | SMILES
8 | 43 nM and 54.5 nM and 225 nM | OCC(CN1Cc2ccccc2C1)N1CCC(c2noc3cc(F)ccc23)CC1 (stereo not given) [Isoindoline, 9]
9 | 11.9 nM | OCC(CN1Cc2ccc(Cl)cc2C1)N1CCC(c2noc3cc(F)ccc23)CC1 (stereo not given) [Isoindoline, 13]
10 | 26 nM | OCC(CN1Cc2ccc(C(F)(F)F)cc2C1)N1CCC(c2noc3cc(F)ccc23)CC1 (stereo not given) [Isoindoline, 17]
